Values of other authors in patent US20130004563A1, “MULTIP[…]-ADENOSYLMETHIONINE COMPOSITIONS AND RELATED METHODS” (priority 2011, published 2013).

Key:
[1] = not given; remark: listed apart in the source

In the case of S-adenosyl-L-methionine [SAMe], the SAMe bioavailability (enteric-coated single unit tablets, compared with immediate release formulations) is given as “higher”, the half-life (in the body, single dose) is given as “approximately 6 hours” and the stability in vitro [1] is given as “relatively unstable”.
